Laboratory results: patent US11213590B2, “SSTR-targeted conjugates and particles and formulations thereof” (priority 2016, dated 2022)
Where two headings read alike, the source gives them in different places.

What was measured:
NCI-H69 xenograft = experiment: NCI-H69 lung xenograft efficacy, formulations and schedules; format: in vivo, mice; settings: cisplatin iv 5.0 mg/kg 1x/week combined with etoposide ip 8.0 mg/kg 3x/week over two weeks (SOC); Day 21
Procedure: A further NCI-H69 study design included Conjugate 57 dosed iv at 1.0 mg/kg formulated in propylene glycol (PG), 1.0 mg/kg formulated in Solutol HS15, 0.5 mg/kg formulated in Solutol HS15 dosed twice per week, and 0.33 mg/kg formulated in Solutol HS15 dosed three times per week. A comparator group was dosed with SOC cisplatin dosed iv at 5.0 mg/kg once per week/etoposide dosed ip at 8.0 mg/kg three times per week over two weeks. A negative control vehicle was dosed with the Solutol HS 15 vehicle. All groups contained 10 animals.

NCI-H69 = experiment: cells; format: cell-based, human; settings: Homo sapiens, read-out: Proliferation Inhibition IC50 of DM1
Procedure: (§1) The purpose of this study was to determine the receptor-dependent inhibition of proliferation in vitro by the somatostatin targeting conjugate Conjugate 57 and determine the sensitivity to DM1 in the human SSTR2 expressing cancer cell lines: NCI-H69, NCI-H82, NCI-H727 and HCC-33. Cells were incubated with Conjugate 57 for 6 hours, in the presence or absence of an excess of octreotide, a somatostatin analogue. A three-fold serial dilution of Conjugate 57 was used for a total of ten concentration points. After treatment, cells were washed, incubated for an additional period of time, either 72 or 96 hours and proliferation was measured using the CellTiter-Glo® Luminescent Cell Viability Assay. The IC50 of Conjugate 57 was used to determine the inhibiting activity in proliferation assays. To determine DM1 sensitivity a similar method to the Conjugate 57 assay was employed with the additional incubation time points of 30 minutes, 1, 2, and 4 hours and the exclusion of the pre-treatment with octreotide. DM1 effect from the most to least sensitive cell line was determined to be: NCI-H69>HCC-33>NCI-H82>NCI-H727 (Table 5B). […] The addition of excess octreotide (100 μM) competes with Conjugate 57 for binding to the SSTR2 receptor. […] In the NCI-H69 experiments, pre-incubation with an excess of octreotide modestly diminished the activity of Conjugate 57 by 1.6 and 2.4 fold, depending on the assay conditions. In the HCC-33 cell line, activity of Conjugate 57 was 3.2 (±1.4) times higher when dosed alone, compared to when the cells were pre-incubated with octreotide. The small but measureable changes in Conjugate 57 activity in the presence of excess octreotide seen in the NCI-H69 and HCC-33 cell lines supports the receptor dependence of the Conjugate 57 antiproliferative effect seen in vitro. In summary, although all the cell lines tested in these experiments express the SSTR2 protein, they have different levels of sensitivity to the Conjugate 57 conjugate of which the DM1 sensitivity may be a contributing factor.

NCI-H727 = experiment: cells; format: cell-based, human; settings: Homo sapiens, read-out: Proliferation Inhibition IC50 of DM1
Procedure: as §1

NCI-H82 = experiment: cells; format: cell-based, human; settings: Homo sapiens, read-out: Proliferation Inhibition IC50 of DM1
Procedure: as §1

HCC-33 = experiment: Inhibition of proliferation, CellTiter-Glo, HCC-33; format: cell-based, human; settings: Homo sapiens, HCC33, 6 h incubation, n = 3, read-out: Proliferation Inhibition IC50 of DM1
Procedure: as §1

CYP3A4 = CYP3A4 (Homo sapiens, UniProt P08684); settings: KADCYLA package insert; to a lesser extent by CYP3A5; cited from earlier work
CYP3A4, sequence (P08684 whole entry): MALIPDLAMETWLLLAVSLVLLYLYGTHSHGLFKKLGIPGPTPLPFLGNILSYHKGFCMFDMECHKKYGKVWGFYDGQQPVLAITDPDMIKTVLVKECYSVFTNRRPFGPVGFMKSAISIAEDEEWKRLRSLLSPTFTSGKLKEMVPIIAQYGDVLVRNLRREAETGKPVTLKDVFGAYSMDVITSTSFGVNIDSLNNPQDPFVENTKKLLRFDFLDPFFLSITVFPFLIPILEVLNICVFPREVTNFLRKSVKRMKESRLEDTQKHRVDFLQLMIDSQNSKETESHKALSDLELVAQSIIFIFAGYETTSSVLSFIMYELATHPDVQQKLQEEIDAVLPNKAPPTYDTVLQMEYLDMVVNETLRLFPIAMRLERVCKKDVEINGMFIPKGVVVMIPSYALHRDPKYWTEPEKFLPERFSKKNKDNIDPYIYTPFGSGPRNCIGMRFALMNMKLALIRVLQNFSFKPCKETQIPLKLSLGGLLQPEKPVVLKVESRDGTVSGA

[1] = cited from earlier work

N.N.[Cl][Pt][Cl] [Cisplatin, reference compound]
MTV (Mean Tumor Volume) (NCI-H69 xenograft): 229 mm3
TGI (Tumor Growth Inhibition) (NCI-H69 xenograft): 84%

COc1cc2cc(c1Cl)N(C)C(=O)C[C@H](OC(=O)[C@H](C)N(C)C(=O)CCS)C1(C)O[C@H]1[C@H](C)[C@@H]1C[C@@](O)(NC(=O)O1)[C@H](OC)/C=C/C=C(\C)C2 (stereo partly drawn) [DM1, mertansine (DM1), reference compound]
IC50 (NCI-H69; 0.5 h, 30 min incubation): 15 nM
IC50 (NCI-H69; 1 h incubation): 8 nM
IC50 (NCI-H69; 2 h incubation): 14 nM
IC50 (NCI-H69; 4 h incubation): 11 nM
IC50 (NCI-H69; 6 h incubation): 6 nM
IC50 (NCI-H727; 0.5 h, 30 min incubation): 1160 nM
IC50 (NCI-H727; 1 h incubation): 665 nM
IC50 (NCI-H727; 2 h incubation): 474 nM
IC50 (NCI-H727; 4 h incubation): 380 nM
IC50 (NCI-H727; 6 h incubation): 534 nM
IC50 (NCI-H82; 0.5 h, 30 min incubation): 171 nM
IC50 (NCI-H82; 1 h incubation): 232 nM
IC50 (NCI-H82; 2 h incubation): 183 nM
IC50 (NCI-H82; 4 h incubation): 188 nM
IC50 (NCI-H82; 6 h incubation): 56 nM
IC50 (HCC-33): 34 nM
metabolizing enzymes in vitro (CYP3A4): metabolized in vitro mainly by CYP3A4

C[C@@H](O)[C@@H]1NC(=O)[C@H](CCCCN)NC(=O)[C@@H](Cc2c[nH]c3ccccc23)NC(=O)[C@H](Cc2ccccc2)NC(=O)[C@@H](NC(=O)[C@@H](Cc2ccccc2)NC(=O)CN(CCN(CCN(CC(=O)O)CC(=O)O)CC(=O)O)CC(=O)O)CSSC[C@@H](C(=O)N[C@H](CO)[C@@H](C)O)NC1=O [^111In pentetreotide, metal not drawn]
hormonal effect relative to octreotide ([1]; according to the manufacturer): 1/10
adverse reactions, frequency ([1]; human, in vivo): < 1%
